Assay results: patent US12161722B2, “Bifunctional heterocyclic compound having BTK degradation function via ubiquitin proteasome pathway, and use thereof” (KOREA RESEARCH INSTITUTE OF CHEMICAL TECHNOLOGY, priority 2021, dated 2024)

Experiments:
WT BTK protein = biological target: T1, WT BTK protein (Homo sapiens, UniProt Q06187); assay: BTK protein degradation assay (Western blotting), WT BTK; format: cell-based; conditions: concentration range accounting for 50% degradation of WT BTK protein, TMD-8 or RAMOS cells, 24 hours
T1 construct: measured for intracellular BTK protein levels by Western blotting; endogenous in cells; host or cells: TMD-8 or RAMOS cells
Method in brief: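 TMD-8 cells (1×10^6 cells/mL) treated 24 h with compound serial dilutions, then lysed in RIPA. Equal protein loads analysed by Western blot for BTK with GAPDH/β-actin as loading controls; activity binned by concentration giving 50% WT BTK degradation.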

C481S BTK protein = biological target: T2, C481S BTK protein (Homo sapiens, UniProt Q06187, C481S); assay: BTK protein degradation assay (Western blotting), C481S BTK; format: cell-based; conditions: concentration range accounting for 50% degradation of C481S BTK protein, 293T BTK MUT (C481S) cells
T2 construct: expressed in transfected cells; host or cells: 293T BTK MUT (C481S) cells
Procedure: TMD-8, RAMOS, or 293T BTK MUT (C481S) cells were treated with the synthesized compounds and measured for intracellular BTK protein levels by Western blotting. The protocol of the experiment using TMD-8 cells is as follows.
The 12-well plates were treated as follows. A 10 mM stock was 1/10 diluted in series with DMSO ([…]) to form final concentrations of 10, 1, 0.1, 0.01, 0.001, and 0.0001 mM. The compounds with such concentrations were applied to cells, followed by harvesting the cells 24 hours later. For a negative control, a 1/10 dilution of DMSO in the medium (3 mL DMSO+27 mL medium) was used.
The 1-mL cell culture in each well was passed many times through a pipette and then transferred into a 1.5-mL microtube before centrifugation (500 g, 5 min, 4° C.). The supernatant was discarded and the cell pellet was washed with PBS. After centrifugation (500 g, 5 min, 4° C.) again, the supernatant was discarded and the cell pellet was taken.
A lysis buffer was prepared as follows. RIPA buffer (Biosesang, RC2038-050-00)+0.5 mM PMSF (SIGMA, P7626)+1×Protease/Phosphatase Inhibitor (Cell signaling, 5872S) was added in an amount […] per well and left for 30 minutes on ice (vortexing at 0 and 30 minutes) before sonication (5 cycles of pulse for 10 seconds and rest for 30 seconds, 70% amplification). The supernatant obtained by centrifugation (15000 g, 15 min, 4° C.) was transferred into a new microtube. Cells in each well of 96-well plates were 1/2 diluted with the RIPA buffer and incubated at 37° C. for 30 minutes with […] of a 50:1 mixture of BCA reagents A and B in BCA Protein Assay Kit (iNtRON, 21071). After being cooled for 10 minutes, the 96-well plates were measured for absorbance at 562 nm on the BioTek, SYNERGY H1 microplate reader. Samples were prepared by protein quantification based on the absorbance measurements and then boiled at 70° C. for 10 minutes. The sample buffer used in the case was prepared by mixing a NuPAGE or a Bolt 4× sample buffer (Invitrogen) and its 10× sample reducing agent depending on the gel to be used, and protein dilution was made in a RIPI buffer.
The samples were loaded in the same amount into a NuPAGE or Bolt Bis-tris 4-12% gradient gel and allowed to run therein (200 V, 35 minutes). The separated proteins were transferred onto a […] NC membrane, using Trans-blot Turbo (BIO-RAD) (1.3 A constant, 25V limit, 15 minutes). The membrane was blocked at room temperature for 1 hour with skim milk or Intercept Blocking Buffer (LI-COR, 927-60001):0.1% TBST=1:1. The membrane was incubated with Anti BTK Rabbit (1:1,000 in 5% skim milk/0.2% TBST, size: 77 kDa, Cell signaling Technology) at 4° C. overnight O/N or at room temperature for 2 hours and with Anti GAPDH Rabbit (1:10,000 in 5% BSA/0.2% TBST, size: 36 kDa, GENETEX) and Anti β-actin mouse (1:10,000 in 5% BSA/0.2% TBST, RT, size: 43 kDa, GENETEX) at room temperature for 1 or 3 hours. Then, the membrane was washed three times with 0.5% TBST for 5 minutes each time before incubation with the second antibody Anti-Rabbit IgG (1:5,000 in 5% Skim milk/TBST, CST), IRDye® 800CW Goat anti-Rabbit IgG Secondary Antibody (1:10,000 in 5% skim/TBST, RT 45 min), or IRDye® 680RD Goat anti-Mouse IgG Secondary Antibody (1:10,000 in 5% skim/TBST, RT 45 min) for 45 minutes at room temperature in a rocker. The membrane was washed five times with 0.5% TBST for 5 minutes in each time, followed by detection with LI-COR, Odyssey. In this regard, the detection proceeded, as it was, for house-keeping genes while using SuperSignal West Pico PLUS Chemiluminescent Substrate or SuperSignal West femto Maximum Sensitivity Substrate for BTK detection.
According to the concentration ranges of compounds accounting for 50% degradation of WT BTK protein and C481S BTK protein, the activities are expressed as +++(0.0001-0.01 μM), ++(0.01-1 μM), +(1-10 μM), −(>10 μM), and NT (not tested). […]

T1 sequence (Q06187 whole entry): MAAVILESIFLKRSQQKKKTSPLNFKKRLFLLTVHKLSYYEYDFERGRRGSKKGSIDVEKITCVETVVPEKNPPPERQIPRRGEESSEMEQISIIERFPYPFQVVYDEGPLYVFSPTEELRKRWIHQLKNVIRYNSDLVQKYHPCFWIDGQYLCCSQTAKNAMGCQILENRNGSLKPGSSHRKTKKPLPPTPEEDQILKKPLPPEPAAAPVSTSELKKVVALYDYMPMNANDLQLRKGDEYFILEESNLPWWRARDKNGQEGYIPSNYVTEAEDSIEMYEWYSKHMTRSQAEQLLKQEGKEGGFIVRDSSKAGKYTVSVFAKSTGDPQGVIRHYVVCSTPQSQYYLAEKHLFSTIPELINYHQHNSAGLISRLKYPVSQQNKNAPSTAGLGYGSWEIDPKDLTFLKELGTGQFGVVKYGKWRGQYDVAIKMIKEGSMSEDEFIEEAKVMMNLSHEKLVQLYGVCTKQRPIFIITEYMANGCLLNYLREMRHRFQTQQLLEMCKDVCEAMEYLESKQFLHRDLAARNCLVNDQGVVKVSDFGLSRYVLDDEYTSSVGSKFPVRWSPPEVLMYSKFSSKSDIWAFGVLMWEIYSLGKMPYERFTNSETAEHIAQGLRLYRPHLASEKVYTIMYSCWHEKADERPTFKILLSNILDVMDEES
T2 sequence (Q06187 whole entry C481S): as the sequence (Q06187 whole entry) above, with C481S counted along it

Row | DC50 (WT BTK protein) [nM] | DC50 (C481S BTK protein) [nM] | Compound
1 | 0.1 to 10 | 0.1 to 10 | Cc1cccc(C)c1Nc1nn(C)c2nc(Nc3ccc4c(c3)CN(C3CN(CC5CCN(c6ccc7c(c6)C(=O)N(C6CCC(=O)NC6=O)C7=O)CC5)C3)CC4)ncc12 (centres unmarked) [Compound 149, 5-(4-((3-(7-((3-((2,6-Dimethylphenyl)amino)-1-methyl-1H-pyrazolo[3,4-d]pyrimidin-6-yl)amino)-3,4-dihydroisoquinolin-2 (1H)-yl)azetidin-1-yl)methyl)piperidin-1-yl)-2-(2,6-dioxopiperidin-3-yl)isoindoline-1,3-dione]
2 | 10 to 1000 | > 10000 | Cc1cccc(C)c1Nc1nn(C)c2nc(Nc3ccc4c(c3)CN(Cc3cn(CCOCCOCCNC(=O)CNc5ccc6c(c5)C(=O)N(C5CCC(=O)NC5=O)C6=O)nn3)CC4)ncc12 (centres unmarked) [Compound 12, N-(2-(2-(2-(4-((7-((3-((2,6-Dimethylphenyl)amino)-1-methyl-1H-pyrazolo[3,4-d]pyrimidin-6-yl)amino)-3,4-dihydroisoquinolin-2 (1H)-yl)methyl)-1H-1,2,3-triazol-1-yl)ethoxy)ethoxy)ethyl)-2-((2-(2,6-dioxopiperidin-3-yl)-1,3-dioxoisoindolin-5-yl)amino)acetamide]
3 | 0.1 to 10 | 1000 to 10000 | Cc1cccc(C)c1Nc1nn(C)c2nc(Nc3ccc4c(c3)CN(C(=O)COCCOCCOCCOCCNc3cccc5c3C(=O)N(C3CCC(=O)NC3=O)C5=O)CC4)ncc12 (centres unmarked) [Compound 13]
4 | 0.1 to 10 | 1000 to 10000 | Cc1cccc(C)c1Nc1nn(C)c2nc(Nc3ccc4c(c3)CN(C(=O)COCCOCCNc3cccc5c3C(=O)N(C3CCC(=O)NC3=O)C5=O)CC4)ncc12 (centres unmarked) [Compound 3, 4-((2-(2-(2-(7-((3-((2,6-Dimethylphenyl)amino)-1-methyl-1H-pyrazolo[3,4-d]pyrimidin-6-yl)amino)-3,4-dihydroisoquinolin-2 (1H)-yl)-2-oxoethoxy)ethoxy)ethyl)amino)-2-(2,6-dioxopiperidin-3-yl)isoindoline-1,3-dione]
5 | 0.1 to 10 | 1000 to 10000 | Cc1cccc(C)c1Nc1nn(C)c2nc(Nc3ccc4c(c3)CN(C(=O)C3CCN(c5cccc6nnn(C7CCC(=O)NC7=O)c(=O)c56)CC3)CC4)ncc12 (centres unmarked) [Compound 59]
6 | 0.1 to 10 | 0.1 to 10 | Cc1cccc(C)c1Nc1nn(C)c2nc(Nc3ccc4c(c3)CN(C3CCN(c5ccc6c(c5)C(=O)N(C5CCC(=O)NC5=O)C6=O)CC3)CC4)ncc12 (centres unmarked) [Compound 88, 5-(4-(7-((3-((2,6-dimethylphenyl)amino)-1-methyl-1H-pyrazolo[3,4-d]pyrimidin-6-yl)amino)-3,4-dihydroisoquinolin-2 (1H)-yl)piperidin-1-yl)-2-(2,6-dioxopiperidin-3-yl)isoindoline-1,3-dione]
7 | 0.1 to 10 | 10 to 1000 | Cc1cccc(C)c1Nc1nn(C)c2nc(Nc3ccc4c(c3)CN(C(=O)[C@@H]3CCCN3C(=O)CNc3ccc5c(c3)C(=O)N(C3CCC(=O)NC3=O)C5=O)CC4)ncc12 (stereo partly drawn) [Compound 35, 5-((2-((S)-2-(7-((3-((2,6-Dimethylphenyl)amino)-1-methyl-1H-pyrazolo[3,4-d]pyrimidin-6-yl)amino)-1,2,3,4-tetrahydroisoquinoline-2-carbonyl)pyrrolidin-1-yl)-2-oxoethyl)amino)-2-(2,6-dioxopiperidin-3-yl)isoindoline-1,3-dione]
8 | 0.1 to 10 | > 10000 | Cc1cccc(C)c1Nc1nn(C)c2nc(Nc3ccc4c(c3)CN(C(=O)CCOCCOCCOCCOCCNC(=O)COc3cccc5c3C(=O)N(C3CCC(=O)NC3=O)C5=O)CC4)ncc12 (centres unmarked) [Compound 17, N-(15-(7-((3-((2,6-Dimethylphenyl)amino)-1-methyl-1H-pyrazolo[3,4-d]pyrimidin-6-yl)amino)-3,4-dihydroisoquinolin-2 (1H)-yl)-15-oxo-3,6,9,12-tetraoxapentadecyl)-2-((2-(2,6-dioxopiperidin-3-yl)-1,3-dioxoisoindolin-4-yl)oxy)acetamide]
9 | 0.1 to 10 | > 10000 | Cc1cccc(C)c1Nc1nn(C)c2nc(Nc3ccc4c(c3)CN(Cc3cn(CCOCCOCCNC(=O)CNc5cccc6c5C(=O)N(C5CCC(=O)NC5=O)C6=O)nn3)CC4)ncc12 (centres unmarked) [Compound 11]
10 | 10 to 1000 | > 10000 | Cc1cccc(C)c1Nc1nn(C)c2nc(Nc3ccc4c(c3)CN(C(=O)COCCOCCOCCOCCNC(=O)CNc3cccc5c3C(=O)N(C3CCC(=O)NC3=O)C5=O)CC4)ncc12 (centres unmarked) [Compound 10, N-(14-(7-((3-((2,6-Dimethylphenyl)amino)-1-methyl-1H-pyrazolo[3,4-d]pyrimidin-6-yl)amino)-3,4-dihydroisoquinolin-2 (1H)-yl)-14-oxo-3,6,9,12-tetraoxatetradecyl)-2-((2-(2,6-dioxopiperidin-3-yl)-1,3-dioxoisoindolin-4-yl)amino)acetamide]
11 | 0.1 to 10 | 10 to 1000 | Cc1cccc(C)c1Nc1nn(C)c2nc(Nc3ccc4c(c3)CN(C(=O)COCCOCCNc3ccc5c(c3)C(=O)N(C3CCC(=O)NC3=O)C5=O)CC4)ncc12 (centres unmarked) [Compound 2, 5-((2-(2-(2-(7-((3-((2,6-Dimethylphenyl)amino)-1-methyl-1H-pyrazolo[3,4-d]pyrimidin-6-yl)amino)-3,4-dihydroisoquinolin-2 (1H)-yl)-2-oxoethoxy)ethoxy)ethyl)amino)-2-(2,6-dioxopiperidin-3-yl)isoindoline-1,3-dione]
12 | 0.1 to 10 | 0.1 to 10 | Cc1cccc(C)c1Nc1nn(C)c2nc(Nc3ccc4c(c3)CN(C[C@H]3CCN(c5ccc6c(c5)C(=O)N(C5CCC(=O)NC5=O)C6=O)C3)CC4)ncc12 (stereo partly drawn) [Compound 144, 5-((R)-3-((7-((3-((2,6-dimethylphenyl)amino)-1-methyl-1H-pyrazolo[3,4-d]pyrimidin-6-yl)amino)-3,4-dihydroisoquinolin-2 (1H)-yl)methyl)pyrrolidin-1-yl)-2-(2,6-dioxopiperidin-3-yl)isoindoline-1,3-dione]
13 | 0.1 to 10 | 0.1 to 10 | Cc1cccc(C)c1Nc1nn(C)c2nc(Nc3ccc4c(c3)CN(CC3CCN(C(=O)C5CCN(c6ccc7nnn(C8CCC(=O)NC8=O)c(=O)c7c6)CC5)CC3)CC4)ncc12 (centres unmarked) [Compound 37, 3-(6-(4-(4-((7-((3-((2,6-Dimethylphenyl)amino)-1-methyl-1H-pyrazolo[3,4-d]pyrimidin-6-yl)amino)-3,4-dihydroisoquinolin-2 (1H)-yl)methyl)piperidine-1-carbonyl)piperidin-1-yl)-4-oxobenzo[d][1,2,3]triazin-3 (4H)-yl)piperidin-2,6-one]
